This is an account of results in US6660473B1, “C-terminal protein tagging” (Phylos, Inc., priority 1999, dated 2003).

Assay [1] concerns the target ribosomal peptidyl transferase. The following applies: ribosomal peptidyl transferase site; cited from earlier work.
Assay [2] deals with stalled translation reaction (myc-dA30 in rabbit reticulocyte lysate). The following applies: 130 μM added to stalled translation reaction; 500 mM KCl, 20 mM MgCl2; anti-myc immunoprecipitation.
Description: Myc dsDNA was generated by standard methods of PCR to include a 5′-T7 promoter for in vitro synthesis of mRNA using T7 polymerase and a deletion mutant of the tobacco mosaic virus 5′-UTR to induce efficient translation initiation in rabbit reticulocyte lysates. The 3′-end of the myc construct was devoid of stop codons to prevent protein release from the ribosome.
Transcription of the myc PCR product (using the MegaSHORTscript kit, Ambion) gave large quantities of RNA using T7 RNA polymerase. Purified RNA was then subjected to a splinted ligation reaction with a 5′-phosphorylated dA30 oligonucleotide catalyzed by T4 DNA ligase. The 3′-dA30 region facilitates ribosomal stalling and thereby increases the proportion of RNA-ribosome-protein complexes available for labeling. The purified myc-dA30 construct was then translated in rabbit reticulocyte lysate (Ambion) with ^35S-methionine and stalled under high salt conditions (500 mM KCl, 20 mM MgCl2).
Biotin-TEG-dCdCdA was used as a control. The radiolabled myc peptide was then isolated by immunoprecipitation with an anti-myc monoclonal antibody (Chemicon) and protein A sepharose (Sigma). Control and C-terminally-labeled peptide were then applied to a microscope slide prefunctionalized with NeutrAvidin™ (Pierce).
In assay [3] the test system is stalled translation reaction (10Fn3-dA30 in rabbit reticulocyte lysate). To be noted: labeling as in the myc experiment; Co2+-NTA purification.

As to `COc1ccc(C[C@H](N)C(=O)N[C@H]2[C@@H](O)[C@H](n3cnc4c(N(C)C)ncnc43)O[C@@H]2CO)cc1` [puromycin], the “Kd of unmodified puromycin” value in assay [1] is reported as “in the micromolar range”.

As to Biotin-TEG-dCdC-puromycin, the “immobilization of 35S-labeled myc epitope on NeutrAvidin slide (phosphorimaging)” value in assay [2] is reported as “biotin-dependent immobilization of myc epitope to the chip surface”. In addition, the “immobilization of radiolabeled 10Fn3 on NeutrAvidin-spotted chip (phosphorimaging)” value in assay [3] was “presence of radiolabeled ^10Fn3”.

Take Biotin-TEG-dCdCdA: the “immobilization of 35S-labeled myc epitope on NeutrAvidin slide (phosphorimaging)” value in assay [2] is “no significant label”.
